A short description of this data set: solvent given as SMILES.

The values below come from the Deep4Chem optical property database.

Where “and” joins values, the source holds several entries; their conditions need not be identical. Identical values can stand only once.

As to `COc1ccc(C#Cc2ccc(C#N)cc2)cc1`, the absorption maximum is listed as 330 nm (in C1COCCO1); 324 nm (in CC#N); 331 nm (in CCCCCC); 332 nm (in CCCCCCC); 328 nm (in CCCO); 328 nm (in CCOC(C)=O). The absorption maximum was found to be 329 nm (in CS(C)=O), 332 nm (in ClC(Cl)Cl) and 330 nm (in ClCCl).
In turn, `CN(C)c1ccc(/C=C/C=C2\CCCC2=O)cc1` returned an absorption maximum (in CC#N) of 409 nm; an absorption maximum (in CC(C)=O) of 416 nm; an absorption maximum (in CC(C)O) of 420 nm; an absorption maximum (in CCCCCC) of 394 nm; an absorption maximum (in CCCCO) of 425 nm; an absorption maximum (in CCCO) of 422 nm. Moreover, the absorption maximum by setting is: (in CCO) 422 nm; (in CCOC(C)=O) 408 nm; (in CCOCC) 399 nm; (in CN(C)C=O) 408 nm; (in CO) 420 nm; (in CS(C)=O) 416 nm. For the same compound, the absorption maximum by setting is: (in Cc1ccccc1) 409 nm; (in ClC(Cl)(Cl)Cl) 407 nm; (in ClC(Cl)Cl) 404 nm; (in ClCCl) 420 nm; (in c1ccccc1) 411 nm; (in c1ccncc1) 419 nm.
As for `CC(C)c1cc(C(C)C)c(B2c3ccccc3Oc3cc(-n4c5ccccc5c5ccc6c(c7ccccc7n6-c6ccccc6)c54)ccc32)c(C(C)C)c1`, the absorption maximum (in Cc1ccccc1) came to 438 nm.
`COc1cccc2cc(C)c3c4ccccc4[nH]c3c12`: for the setting “in ClCCl”, the absorption maximum is given as 360 nm.
Consider `COc1ccc(C2=C(c3ccc(OC)cc3)c3cccc4c3c(cc3nc5ccccc5nc34)O2)cc1`, for which, where the note is “in ClCCl”, the absorption maximum was determined as 500 nm.
For `O=C(O)COc1cccc(OCC(=O)O)c1-c1c2ccc(=[N+]3CCCCC3)cc-2oc2cc(N3CCCCC3)ccc12`, the absorption maximum is, setting by setting: (in CCO) 557 nm; (in O) 567 nm.
As for `CCCCOC(=O)c1ccccc1-c1c2ccc(=[N+](CC)CC)cc-2oc2cc(N(CC)CC)ccc12`, the absorption maximum came out at 555 nm (in CC#N), 543 nm (in CCO), 562 nm (in CN(C)C=O) and 558 nm (in O).
`CCCCN1/C(=C/C=C/C2=[N+](C)c3ccccc3C2(C)C)C(C)(C)c2cc(Br)ccc21` came in with an absorption maximum (in CS(C)=O) of 556 nm.
In the case of `c1ccc(-c2nc(-c3ccccn3)[se]c2N(c2ccccc2)c2ccccc2)cc1`, under “in ClC(Cl)Cl”, the absorption maximum is 406 nm.
The compound `CC(C)(C)c1ccc(-c2nc3c4ccccc4c4ccccc4c3n2-c2ccc(-c3ccc(N(c4ccccc4)c4ccccc4)cc3)cc2)cc1` registered an absorption maximum (in ClCCl) of 332 nm.
`COc1ccc(-c2sc3c(-c4ccc(OC)cc4)c4n(c3c2-c2ccc(OC)cc2)[B-](F)(F)[N+]2=Cc3c(-c5ccc(OC)cc5)c5sc(-c6ccc(OC)cc6)c(-c6ccc(OC)cc6)c5n3[B-](F)(F)[N+]2=C4)cc1`: the absorption maximum is, setting by setting: (in CC#N) 587 nm; (in CCCCCC) 595 nm; (in CN(C)C=O) 593 nm; (in Cc1ccccc1) 610 nm; (in ClCCl) 600 nm.
For `c1ccc(N2c3ccc4ccccc4c3-c3c4ccccc4cc[n+]3[B-]2(c2ccccc2)c2ccccc2)cc1`, under “in Cc1ccccc1”, the absorption maximum was determined as 511 nm.
As for `CCCCCCOc1ccc2oc3c(c2c1)=CC1=C(c2ccccc2C)c2cc4c5cc(OCCCCCC)ccc5oc4n2[B-](F)(F)[N+]=31`, the absorption maximum is, setting by setting: (in C1CCCCC1) 592 nm; (in CCOC(C)=O) 587 nm; (in CO) 585 nm.
Take `CC1(C)CC(/C=C/c2ccc(N3CCOCCOCCOCCOCC3)cc2)=CC(=C(C#N)C#N)C1`: the absorption maximum is, setting by setting: (in C1CCOC1) 500 nm; (in CC#N) 493 nm; (in CCO) 504 nm; (in CCOC(C)=O) 496 nm; (in ClCCl) 502 nm; (in c1ccccc1) 500 nm.
As to `CCOC(=O)C1(O)c2cc3ccc4cccc5ccc(c2C(=O)N1C(C)(C)C)c3c45` (centres undefined), the absorption maximum (in ClC(Cl)Cl) was 385 nm.
As for `CCCCCCCC1=C(C)C(=O)n2c1cc1[nH]c(C(=O)OC)c(C)c1c2=O`, the absorption maximum runs as follows: (in C1CCCCC1) 393 nm; (in CO) 397 nm; (in CS(C)=O) 397 nm; (in ClC(Cl)Cl) 396 nm; (in c1ccccc1) 395 nm.
`Cc1cc(C)c(C2=C3C=C(c4ccccc4)C(c4ccccc4)=[N+]3[B-](F)(F)n3c2cc(-c2ccccc2)c3-c2ccccc2)c(C)c1` came in with an absorption maximum (in C1CCCCC1) of 590 nm; an absorption maximum (in C1CCOC1) of 587 nm; an absorption maximum (in CC#N) of 578 nm; an absorption maximum (in Cc1ccccc1) of 592 nm; an absorption maximum (in ClCCl) of 585 nm.
Take `Cc1ccc2c(c1)c1cc(C)ccc1n2-c1cccc(-n2c3ccc(C)cc3c3cc(C)ccc32)c1C#N`: the absorption maximum (in Cc1ccccc1) was 368 nm.
Take `c1ccc(-c2nc(-c3ccc(-c4nc(-c5ccccc5)c(-c5ccccc5)[nH]4)cc3)[nH]c2-c2ccccc2)cc1`: the absorption maximum is 361 nm (in C1CCOC1); 355 nm and 358 nm (in CC#N); 360 nm (in CC(=O)O); 360 nm (in CC(C)=O); 359 nm (in CCOC(C)=O); 359 nm (in CCOCC). In addition, the absorption maximum stood at 357 nm (in CO), 380 nm (in CS(C)=O) and 358 nm (in ClC(Cl)Cl).
As to `O=Cc1ccc(Oc2ccc3c4c(cccc24)C(=O)N(CCO)C3=O)cc1`, where the note is “in ClC(Cl)Cl”, the absorption maximum turned out to be 355 nm.
Turning to `Cc1c2c(c(C)c3ccccc13)-c1c-2ccc2nc3ccccc3nc12`, the absorption maximum (in ClC(Cl)Cl) was found to be 455 nm.
Where the note is “in ClCCl”, `[O-][n+]1c(/C=C/c2ccc(/C=C/c3ccccc3)cc2)nc(N2CCOCC2)c2c1CCCC2` gave an absorption maximum of 406 nm.
Under “in C1COCCO1”, `CC(=O)Nc1ccc(C2=C/C(=C\c3ccc(C#N)cc3)C(=O)N2CC(C)C)cc1` came in with an absorption maximum of 450 nm.
As for `CCn1c2ccccc2c2cc(-c3cc(-c4ccc5c(c4)c4ccccc4n5CC)nc(OC)n3)ccc21`, the absorption maximum is 366 nm (in C1CCOC1); 364 nm (in CCOC(C)=O); 369 nm (in CN(C)C=O); 365 nm (in Cc1ccccc1); 366 nm (in ClCCl).
In the case of `CN(C)c1ccc(C(=Cc2ccc(/C=C(\C#N)c3ccccc3)cc2)c2ccc(N(C)C)cc2)cc1`, under “in C1CCOC1”, the absorption maximum is on record as 436 nm.
`Fc1ccc(C#Cc2cc(C#Cc3ccc(F)cc3)c(C#Cc3ccc(F)cc3)c(C#Cc3ccc(F)cc3)c2C#Cc2ccc(F)cc2)cc1` showed an absorption maximum (in ClCCl) of 371 nm.
The compound `CC(C)c1cc(C(C)C)c(-c2ccc(-n3c4ccccc4n4c5ccccc5nc34)nc2)c(C(C)C)c1` displayed an absorption maximum (in Cc1ccccc1) of 345 nm.
On to `Cc1ccc(-c2cnc3nn4ccccc4c3c2)cc1`, for which the absorption maximum (in C1CCOC1) stood at 386 nm.
The compound `c1cc2c3c4c5c(cccc5cc3c1)-c1cccn1B4n1cccc1-2` displayed an absorption maximum (in C1CCOC1) of 505 nm.
